Literature values, collected in patent US20160165928A1, “METHODS OF REDUCING METHANE EMISSION DERIVED FROM RUMINAL FERMENTATION WHILE SIMULTANEOUSLY REDUCING RISK OF NITRATE INTOXICATION” (Grasp Indústria e Comércio Ltda., priority 2011, published 2016).
Each block holds one compound with its values, some of them ahead of it.

Legend:
[1] = tested on: methane produced by rumen fermentation; conditions: in vivo
[2] = tested on: ruminal accumulation of nitrite; conditions: in vivo

SMILES: O=[N+]([O-])[O-].[Na+] [sodium nitrate]
methane emission in ruminants [1]: reduced methane emission

SMILES: O=[N+]([O-])[O-].[K+] [potassium nitrate]
methane emission in ruminants [1]: reduced methane emission

SMILES: O=S(=O)([O-])[O-].[Cu+2] [copper sulfate]
intoxication risks [2]: minimization of intoxication risks | ruminal accumulation of nitrite [2]: reduction of ruminal accumulation of nitrite

inhibition of nitrate reductase (nitrate reductase): inhibit nitrate reductase
SMILES: [Na+].[Na+].[O]=[W](=[O])([O-])[O-] [sodium tungstate]

SMILES: O=[N+]([O-])[O-].O=[N+]([O-])[O-].[Ca+2] [calcium nitrate]
methane emission in ruminants [1]: reduced methane emission

SMILES: O=S(=O)([O-])[O-].[Na+].[Na+] [sodium sulfate]
ruminal accumulation of nitrite [2]: reduction of ruminal accumulation of nitrite

SMILES: O=S(=O)([O-])[O-].[Mg+2] [magnesium sulfate]
ruminal accumulation of nitrite [2]: reduction of ruminal accumulation of nitrite
